Columns and labels:
[1] = biological target: p38a activated, mitogen-activated protein kinase-activated protein kinase 2 (MAPKAP-K2 or MK-2) enzyme (Homo sapiens (Human), UniProt P49137); assay: MK2 Omnia continuous-read kinase assay for compound potency; type: biochemical; details: [MK-2]=0.4 nM, [ATP]=1.0 mM, [ST3-Sox]=10 μM
Outline: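 Continuous Omnia fluorescence read (λex360/λem485) every 71 s after starting with 0.4 nM MK-2, with 1.0 mM ATP (appKM 8-10 μM) and 10 μM ST3-Sox substrate.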

MK2 [2] = biological target: T1, MK2 (Homo sapiens (Human), UniProt P49137); assay: MK2 target occupancy assay in Thp-1 cells with Covalent probe 2; type: cell-based; details: 1 μM test compound, 1 hour at 37° C.
Description: This experiment measured occupancy of the MK2 target by compounds according to the invention. Thp-1 cells (human acute monocytic leukemia) were grown in suspension in T225 flasks. Two days prior to assay, Thp-1 cells were spun down, counted and plated at 1×10^6 cells per well of a 12 well plate in compete media containing 10 ng/ml PMA (phorbol myristate acetate) to differentiate the cells. On day of assay, cells were washed with complete media, and a -test compound was added to cells at a concentration of 1 μM in complete media and incubated for 1 hour at 37° C. Cells were washed 1× with PBS and lysed on ice with BioRad Bioplex lysis buffer. The lysates were incubated with 1 μM biotinylated MK2 Covalent probe 2 at room temperature for 1 hour. 50 μg of total protein from lysates was loaded on gel and blots were probed for total MK2 with SC-100393 antibody and for probe with streptavidin-800. The amount of covalent probe signal divided by the amount of MK2 signal for samples with no test compound treatment represents the maximum probe signal (MPS). In samples treated with test compound prior to covalent probe, the ratio of probe signal to MK2 signal (the test probe signal, TPS) will be reduced by the degree of target occupancy by the test compound which blocks covalent probe binding. […] This ratio is then expressed as a percent occupancy.

MK2 [3] = biological target: T1, MK2; assay: MK2 cellular assay (Hsp27 phosphorylation in Thp-1 cells); type: cell-based; details: differentiated Thp-1 cells, compound 1 hour, 50 ng/ml LPS 15 minutes, phosphorylation of Hsp27; read-out: MK2EC50
Outline: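 PMA-differentiated (10 ng/ml, 2 days) human Thp-1 monocytic cells given compound for 1 h, washed, then stimulated with 50 ng/ml LPS for 15 min. Hsp27 phosphorylation measured by western blot of lysates (20 μg protein); EC50 from dose-response inhibition.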

MK2 [4] = biological target: T1, MK2; assay: MK2 Thp-1 washout assay; type: cell-based; details: up to 6 hours after a 100 nM exposure (1 hour) and subsequent washout, Thp-1 cells
Description: Test compounds were assayed in Thp-1 human acute monocytic leukemia cells. Thp-1 were grown in suspension in T225 flasks. Two days prior to assay, Thp-1 cells were spun down, counted and plated at 1×10^6 cells per well of a 12 well plate in complete media containing 10 ng/ml PMA (phorbol myristate acetate) to differentiate the cells. […] Cells were thoroughly washed to remove the unbound test compound and placed back in the 37° C. tissue culture incubator for the washout period (0 h, 2 h, 6 h, or 16 h). After the washout, complete media containing 50 ng/ml LPS (lipopolysaccharide) was added for 15 minute stimulation, the cells were washed once with PBS, and protein lysates were prepared on ice with BioRad Bioplex lysis buffer. 20 μg total protein from each lysate was loaded on the gel and analyzed by SDS-PAGE. Western blots were probed for phosphorylation of the MK2 substrate Hsp27.

MK2 [5] = biological target: T1, MK2; assay: MK2 modification assessment by whole protein mass spectrometry; type: binding; details: intact MK2, 60 min, 10-fold excess of compound to protein
Outline: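 MK2 treated with compound is analysed intact by MALDI-TOF after C4 cleanup in sinapinic acid matrix. Percent modification is the centroid mass shift against control MK2 divided by compound mass.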

TNFα release [6] = assay: PO mouse PD experiment (TNFα release after LPS); type: in vivo; details: CD-1 male mice, 100 mg/kg PO, 1 hour prior to LPS, read-out: % Inhibition of TNFa
TNFα release [7] = assay: IV mouse PD experiment (TNFα release after LPS); type: in vivo; details: CD-1 male mice, less than 10 mg/kg IV, 1 hour prior to LPS
Description: CD-1 male mice, approximately 5 weeks old were acquired from Charles River Laboratories. Animals were housed in ventilated cages with a 12/12 light cycle and provided rodent chow and water ad libitum. Mice were acclimated at least 1 week prior to study initiation (approximately 6 weeks old). Five (5) mice per group were predosed with one of the following compounds: II-14, III-32, III-8, III-4, II-27 and III-40 (intravenously by lateral tail vein), 1 hour prior to LPS administration. LPS (E.Coli 055:B5 from Sigma, Cat #L2880) was diluted in 0.9% sterile saline (Webster Veterinary Supply, Cat #07-883-6734) to a final concentration of 30 μg/mL. Animals were administered 15 μg in 0.5 mL/mouse (approximately 0.5 mg/kg LPS) intraperitoneally. One hour post LPS administration, the mice were sacrificed via CO2 and whole blood was collected by cardiac puncture. Blood was placed in EDTA K2 tubes (Braintree Scientific, Cat #MT-1395), inverted 3 times and placed on wet ice until centrifugation at 4° C. Plasma was collected and stored on dry ice until stored at −80° C. until processing. TNFα levels were quantified using the “Mouse TNF-alpha Ultra-Sensitive Kit” from mesoscale.com (catalog number K152BHC-2) in conjunction with an MSD plate reader.

T1 sequence (P49137 whole entry): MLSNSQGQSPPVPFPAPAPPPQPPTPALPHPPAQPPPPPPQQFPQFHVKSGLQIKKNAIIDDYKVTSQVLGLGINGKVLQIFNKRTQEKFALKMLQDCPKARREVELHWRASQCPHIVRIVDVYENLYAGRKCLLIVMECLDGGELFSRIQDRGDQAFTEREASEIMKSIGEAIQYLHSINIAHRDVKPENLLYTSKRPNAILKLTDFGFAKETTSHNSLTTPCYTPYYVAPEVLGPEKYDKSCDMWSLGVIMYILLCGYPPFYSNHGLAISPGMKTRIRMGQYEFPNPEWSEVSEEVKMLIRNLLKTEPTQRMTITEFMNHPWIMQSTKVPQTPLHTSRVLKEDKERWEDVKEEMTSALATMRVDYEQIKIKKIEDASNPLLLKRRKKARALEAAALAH
Sequence of p38a activated, mitogen-activated protein kinase-activated protein kinase 2 (MAPKAP-K2 or MK-2) enzyme (P49137 whole entry): as above

Row | SMILES | IC50 [1] [nM] | receptor occupancy at 1 µM (MK2 [2]) [%] | EC50 (MK2 [3]) [nM] | inhibition of p-hsp27 (phosphorylated hsp27) after washout (MK2 [4]) [%] | MK2 Mass Mod (MK2 [5]) | inhibition in vivo at 100 mg/kg (TNFα release [6]) [%] | reduction in TNFα release compared to untreated control (TNFα release [7])
1 | C=CC(=O)Nc1cc(-c2cc3c(cn2)CCc2c-3[nH]c3c2C(=O)NC2(CC2)C3)ccc1OCCOC [II-11, N-(2-(2-methoxyethoxy)-5-(7′-oxo-5′,6′,7′,8′8′,1′,11′-hexahydrospiro[cyclopropane-1,9′-pyrido[3′,4′:4,5]pyrrolo[2,3-f]isoquinolin]-2′-yl)phenyl)acrylamide] | < 100 | 95 | < 100 | > 95 | E (mass modification of ≥70%) | – | –
2 | C=CC(=O)Nc1cc(-c2ccc3c(ccc4sc5c(c43)NC[C@@H](C)NC5=O)n2)ccc1OCCOC [III-8, (R)—N-(2-(2-methoxyethoxy)-5-(10-methyl-8-oxo-9,10,11,12-tetrahydro-8H-[1,4]diazepino[5′,6′:4,5]thieno[3,2-f]quinolin-3-yl)phenyl)acrylamide] | 101 to 500 | 92 | < 100 | – | E (mass modification of ≥70%) | 21 to 80 | greater than 90%

Source: patent publication US11098061B2 (Celgene CAR LLC, priority 2013, dated 2021)
